Results reported in patent US20230085307A1, “PYRIDAZINONE COMPOUND AND HERBICIDE” (NISSAN CHEMICAL CORPORATION, priority 2019, published 2023).

Experiments:
late watergrass = assay: Test Example 1: herbicidal activity, application before weed generation under submerged conditions (Table 16, symbol A); format: in vivo, late watergrass (Echinochloa oryzicola); details: 320 g/ha applied herbicide
How it was run: (§1)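 Alluvial soil was flooded to 4 cm depth, weed seeds were sown mixed and 2.5-leaf rice seedlings were transplanted. On sowing day, the compound's emulsion, diluted in water to a set dose, was applied to the water surface. Plants grew at 25–30 °C and were scored 0–5 after three weeks.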

Japanese bulrush = assay: Test Example 1: herbicidal activity, application before weed generation under submerged conditions (Table 16, symbol B); format: in vivo, Japanese bulrush (Schoenoplectus juncoides); details: 320 g/ha applied herbicide
How it was run: as §1

oval-leafed pondweed = assay: Test Example 1: herbicidal activity, application before weed generation under submerged conditions (Table 16, symbol C); format: in vivo, oval-leafed pondweed (Monochoria vaginalis); details: 320 g/ha applied herbicide
How it was run: as §1

barnyard grass [1] = assay: Test Example 3: herbicidal effect by foliage application, Wagner pot (Table 18, symbol H); format: in vivo, barnyard grass (Echinochloa crus-galli); details: 320 g/ha
How it was run: (§2)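 Plants were sown in alluvial soil held under 0.1–0.5 cm standing water and grown 14 days in a greenhouse at 25–30 °C. An emulsifiable formulation, water-diluted to the set dose, was then sprayed onto the foliage, and effects were scored three weeks later using previously defined criteria.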

Chinese sprangletop = assay: Test Example 3: herbicidal effect by foliage application, Wagner pot (Table 18, symbol D); format: in vivo, chinese sprangletop (Leptochloa chinensis); details: 320 g/ha
How it was run: as §2

rice flat sedge = assay: Test Example 3: herbicidal effect by foliage application, Wagner pot (Table 18, symbol E); format: in vivo, rice flat sedge (Cyperus iria); details: 320 g/ha
How it was run: as §2

southern crabgrass [2] = assay: Test Example 4: herbicidal effect by soil treatment (Table 19, symbol F); format: in vivo, southern crabgrass (Digitaria ciliaris); details: 320 g/ha
How it was run: (§3)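 In this soil treatment, the formulated compound reached the seeds only through the soil: seeds were buried about 1.5 cm deep in sterilized diluvial soil, then the diluted emulsion was sprayed over the surface. After three weeks at 25° C. to 30° C. in a greenhouse, effects were graded on criteria from an earlier test.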

green foxtail [3] = assay: Test Example 4: herbicidal effect by soil treatment (Table 19, symbol G); format: in vivo, green foxtail (Setaria viridis); details: 320 g/ha
How it was run: as §3

barnyard grass [4] = assay: Test Example 4: herbicidal effect by soil treatment (Table 19, symbol H); format: in vivo, barnyard grass (Echinochloa crus-galli); details: 320 g/ha
How it was run: as §3

wild oat [5] = assay: Test Example 4: herbicidal effect by soil treatment (Table 19, symbol I); format: in vivo, wild oat (Avena fatua); details: 320 g/ha
How it was run: as §3

blackgrass [6] = assay: Test Example 4: herbicidal effect by soil treatment (Table 19, symbol J); format: in vivo, blackgrass (Alopecurus myosuroides); details: 320 g/ha
How it was run: as §3

Italian ryegrass [7] = assay: Test Example 4: herbicidal effect by soil treatment (Table 19, symbol K); format: in vivo, Italian ryegrass (Lolium multiflorum); details: 320 g/ha
How it was run: as §3

windgrass [8] = assay: Test Example 4: herbicidal effect by soil treatment (Table 19, symbol L); format: in vivo, windgrass (Apera spica-venti); details: 320 g/ha
How it was run: as §3

velvetleaf [9] = assay: Test Example 4: herbicidal effect by soil treatment (Table 19, symbol M); format: in vivo, velvetleaf (Abutilon theophrasti); details: 320 g/ha
How it was run: as §3

redroot pigweed [10] = assay: Test Example 4: herbicidal effect by soil treatment (Table 19, symbol N); format: in vivo, redroot pigweed (Amaranthus retroflexus); details: 320 g/ha
How it was run: as §3

lambsquarters [11] = assay: Test Example 4: herbicidal effect by soil treatment (Table 19, symbol O); format: in vivo, lambsquarters (Chenopodium album); details: 320 g/ha
How it was run: as §3

chickweed [12] = assay: Test Example 4: herbicidal effect by soil treatment (Table 19, symbol P); format: in vivo, common chickweed (Stellaria media); details: 320 g/ha
How it was run: as §3

persian speedwell [13] = assay: Test Example 4: herbicidal effect by soil treatment (Table 19, symbol R); format: in vivo, Persian speedwell (Veronica persica); details: 320 g/ha
How it was run: as §3

southern crabgrass [14] = assay: Test Example 5: herbicidal effect by foliage application, plastic box (Table 20, symbol F); format: in vivo, southern crabgrass (Digitaria ciliaris); details: foliage application, 320 g/ha, evaluated three weeks after application
How it was run: (§4)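 Plants were sown into sterilized diluvial soil under about 1.5 cm cover and kept in a greenhouse at 25° C. to 30° C. Fourteen days on, foliage received an even spray of the diluted emulsion. Herbicidal or crop effect was judged three weeks afterwards.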

green foxtail [15] = assay: Test Example 5: herbicidal effect by foliage application, plastic box (Table 20, symbol G); format: in vivo, green foxtail (Setaria viridis); details: foliage application, 320 g/ha, evaluated three weeks after application
How it was run: as §4

barnyard grass [16] = assay: Test Example 5: herbicidal effect by foliage application, plastic box (Table 20, symbol H); format: in vivo, barnyard grass (Echinochloa crus-galli); details: foliage application, 320 g/ha, evaluated three weeks after application
How it was run: as §4

wild oat [17] = assay: Test Example 5: herbicidal effect by foliage application, plastic box (Table 20, symbol I); format: in vivo, wild oat (Avena fatua); details: foliage application, 320 g/ha, evaluated three weeks after application
How it was run: as §4

blackgrass [18] = assay: Test Example 5: herbicidal effect by foliage application, plastic box (Table 20, symbol J); format: in vivo, blackgrass (Alopecurus myosuroides); details: foliage application, 320 g/ha, evaluated three weeks after application
How it was run: as §4

Italian ryegrass [19] = assay: Test Example 5: herbicidal effect by foliage application, plastic box (Table 20, symbol K); format: in vivo, Italian ryegrass (Lolium multiflorum); details: foliage application, 320 g/ha, evaluated three weeks after application
How it was run: as §4

windgrass [20] = assay: Test Example 5: herbicidal effect by foliage application, plastic box (Table 20, symbol L); format: in vivo, windgrass (Apera spica-venti); details: foliage application, 320 g/ha, evaluated three weeks after application
How it was run: as §4

velvetleaf [21] = assay: Test Example 5: herbicidal effect by foliage application, plastic box (Table 20, symbol M); format: in vivo, velvetleaf (Abutilon theophrasti); details: foliage application, 320 g/ha, evaluated three weeks after application
How it was run: as §4

redroot pigweed [22] = assay: Test Example 5: herbicidal effect by foliage application, plastic box (Table 20, symbol N); format: in vivo, redroot pigweed (Amaranthus retroflexus); details: foliage application, 320 g/ha, evaluated three weeks after application
How it was run: as §4

lambsquarters [23] = assay: Test Example 5: herbicidal effect by foliage application, plastic box (Table 20, symbol O); format: in vivo, lambsquarters (Chenopodium album); details: foliage application, 320 g/ha, evaluated three weeks after application
How it was run: as §4

chickweed [24] = assay: Test Example 5: herbicidal effect by foliage application, plastic box (Table 20, symbol P); format: in vivo, common chickweed (Stellaria media); details: foliage application, 320 g/ha, evaluated three weeks after application
How it was run: as §4

persian speedwell [25] = assay: Test Example 5: herbicidal effect by foliage application, plastic box (Table 20, symbol R); format: in vivo, Persian speedwell (Veronica persica); details: foliage application, 320 g/ha, evaluated three weeks after application
How it was run: as §4

For `CSCCOc1ccc(-c2sc3ccc(F)cc3c2-c2c(O)c(C)nn(C)c2=O)cc1` [2-058], the “Herbicidal effect on A: late watergrass (grade 0-5)” value (late watergrass) was 0 (Herbicidal rate of 5% or less (almost no effect)), the “Herbicidal effect on B: Japanese bulrush (grade 0-5)” value (Japanese bulrush) was 2 (Herbicidal rate of 20% or more and less than 40%) and the “Herbicidal effect on C: oval-leafed pondweed (grade 0-5)” value (oval-leafed pondweed) was 0 (Herbicidal rate of 5% or less (almost no effect)). The “herbicidal effect on H (barnyard grass), rating 0-5” value (barnyard grass [1]) was 5 (Herbicidal rate of 90% or more (almost completely withered)), the “herbicidal effect on D (Chinese sprangletop), rating 0-5” value (Chinese sprangletop) was 5 (Herbicidal rate of 90% or more (almost completely withered)) and the “herbicidal effect on E (rice flat sedge), rating 0-5” value (rice flat sedge) was 5 (Herbicidal rate of 90% or more (almost completely withered)). For the same compound, the “herbicidal effect rating, F: southern crabgrass” value (southern crabgrass [2]) was 5 (Herbicidal rate of 90% or more (almost completely withered)), the “herbicidal effect rating, G: green foxtail” value (green foxtail [3]) was 4 (Herbicidal rate of 70% or more and less than 90%) and the “herbicidal effect rating, H: barnyard grass” value (barnyard grass [4]) was 1 (Herbicidal rate of 5% or more and less than 20%). For the same compound, the “herbicidal effect rating, I: wild oat” value (wild oat [5]) was 0 (Herbicidal rate of 5% or less (almost no effect)), the “herbicidal effect rating, J: blackgrass” value (blackgrass [6]) was 5 (Herbicidal rate of 90% or more (almost completely withered)) and the “herbicidal effect rating, K: Italian ryegrass” value (Italian ryegrass [7]) was 4 (Herbicidal rate of 70% or more and less than 90%). For the same compound, the “herbicidal effect rating, L: windgrass” value (windgrass [8]) was 4 (Herbicidal rate of 70% or more and less than 90%), the “herbicidal effect rating, M: velvetleaf” value (velvetleaf [9]) was 3 (Herbicidal rate of 40% or more and less than 70%) and the “herbicidal effect rating, N: redroot pigweed” value (redroot pigweed [10]) was 5 (Herbicidal rate of 90% or more (almost completely withered)). For the same compound, the “herbicidal effect rating, O: lambsquarters” value (lambsquarters [11]) was 5 (Herbicidal rate of 90% or more (almost completely withered)), the “herbicidal effect rating, P: chickweed” value (chickweed [12]) was 3 (Herbicidal rate of 40% or more and less than 70%) and the “herbicidal effect rating, R: persian speedwell” value (persian speedwell [13]) was 4 (Herbicidal rate of 70% or more and less than 90%). The “herbicidal effect on F: southern crabgrass” value (southern crabgrass [14]) was 5 (Herbicidal rate of 90% or more (almost completely withered)), the “herbicidal effect on G: green foxtail” value (green foxtail [15]) was 5 (Herbicidal rate of 90% or more (almost completely withered)) and the “herbicidal effect on H: barnyard grass” value (barnyard grass [16]) was 5 (Herbicidal rate of 90% or more (almost completely withered)). For the same compound, the “herbicidal effect on I: wild oat” value (wild oat [17]) was 5 (Herbicidal rate of 90% or more (almost completely withered)), the “herbicidal effect on J: blackgrass” value (blackgrass [18]) was 5 (Herbicidal rate of 90% or more (almost completely withered)) and the “herbicidal effect on K: Italian ryegrass” value (Italian ryegrass [19]) was 5 (Herbicidal rate of 90% or more (almost completely withered)). For the same compound, the “herbicidal effect on L: windgrass” value (windgrass [20]) was 5 (Herbicidal rate of 90% or more (almost completely withered)), the “herbicidal effect on M: velvetleaf” value (velvetleaf [21]) was 5 (Herbicidal rate of 90% or more (almost completely withered)) and the “herbicidal effect on N: redroot pigweed” value (redroot pigweed [22]) was 5 (Herbicidal rate of 90% or more (almost completely withered)). The “herbicidal effect on O: lambsquarters” value (lambsquarters [23]) was 5 (Herbicidal rate of 90% or more (almost completely withered)), the “herbicidal effect on P: chickweed” value (chickweed [24]) was 5 (Herbicidal rate of 90% or more (almost completely withered)) and the “herbicidal effect on R: persian speedwell” value (persian speedwell [25]) was 5 (Herbicidal rate of 90% or more (almost completely withered)).
